Measured values reported in patent US20240294533A1, “2-(HET)ARYL-SUBSTITUTED CONDENSED HETEROCYCLE DERIVATIVES AS PEST CONTROL AGENTS” (Bayer Aktiengesellschaft, priority 2021, published 2024).

Tests used:
Type in all cases: in vivo
Phaedon cochleariae = Phaedon cochleariae spray test; conditions: 100 g/ha, Chinese cabbage leaf discs, after 7 days
Excerpt: Phaedon cochleariae—Spray Test
Solvent: 78.0 parts by weight of acetone • • 1.5 parts by weight of dimethylformamide
Emulsifier: alkylaryl polyglycol ether
An appropriate active ingredient formulation is produced by dissolving 1 part by weight of active ingredient with the stated parts by weight of solvent and making the solution up to the desired concentration with water containing an emulsifier concentration of 1000 ppm. Further test concentrations are produced by diluting the formulation with emulsifier-containing water.
Discs of Chinese cabbage leaves (Brassica pekinensis) are sprayed with an active ingredient formulation of the desired concentration and, after drying, populated with larvae of the mustard beetle (Phaedon cochleariae).
After 7 days, efficacy in % is determined. 100% means that all the beetle larvae have been killed; 0% means that no beetle larvae have been killed.

Nezara viridula = Nezara viridula spray test (infected barley plants sprayed); conditions: 100 g ai/ha, after 4 days
Excerpt: Nezara viridula—Spray Test Solvent: 52.5 parts by weight of acetone • 7 parts by weight of dimethylformamide Emulsifier: alkylaryl polyglycol ether An appropriate active ingredient formulation is produced by dissolving 1 part by weight of active ingredient with the stated parts by weight of solvent and making the solution up to the desired concentration with water containing an emulsifier concentration of 1000 ppm. Further test concentrations are produced by diluting the formulation with emulsifier-containing water. If the addition of ammonium salts or/and penetrants is required, these are each added in a concentration of 1000 ppm to the formulation solution. Barley plants (Hordeum vulgare) infected with larvae of the Southern green shield bug (Nezara viridula) are sprayed with an active ingredient formulation of the desired concentration. After 4 days, efficacy in % is determined. 100% means that all of the shield bugs have been killed; 0% means that none of the shield bugs have been killed.

Spodoptera frugiperda [1] = experiment: Spodoptera frugiperda spray test (maize leaf discs); conditions: Spodoptera frugiperda, foliar, 168 h, after 7 days, read-out: efficacy
Excerpt: Spodoptera Frusiperda—Spray Test Solvent: 78.0 parts by weight of acetone • • 1.5 parts by weight of dimethylformamide Emulsifier: alkylaryl polyglycol ether An appropriate active ingredient formulation is produced by dissolving 1 part by weight of active ingredient with the stated parts by weight of solvent and making the solution up to the desired concentration with water containing an emulsifier concentration of 1000 ppm. Further test concentrations are produced by diluting the formulation with emulsifier-containing water. Leaf discs of maize (Zea mays) are sprayed with an active ingredient formulation of the desired concentration and, after drying, populated with caterpillars of the fall armyworm (Spodoptera frugiperda). After 7 days, efficacy in % is determined. 100% means that all the caterpillars have been killed; 0% means that no caterpillar has been killed.

Myzus persicae [2] = experiment: Myzus persicae oral test; conditions: 4 ppm, after 5 days
Procedure: Myzus persicae—Oral Test Solvent: 100 parts by weight of acetone An appropriate active ingredient formulation is produced by dissolving 1 part by weight of active ingredient with the specified parts by weight of solvent and making the solution up to the desired concentration with water. 50 μl of the active ingredient formulation is transferred into microtitre plates and made up to a final volume of 200 μl with 150 μl of IPL41 insect medium (33%+15% sugar). Subsequently, the plates are sealed with parafilm, which a mixed population of green peach aphids (Myzus persicae) within a second microtitre plate is able to puncture and imbibe the solution. After 5 days, efficacy in % is determined. 100% means that all the aphids have been killed; 0% means that no aphids have been killed.

Ctenocephalides felis = Ctenocephalides felis oral test; conditions: 100 ppm, oral via cattle blood, after 2 days
Procedure: Ctenocephalides felis—Oral Test Solvent: dimethyl sulfoxide An appropriate active ingredient formulation is produced by mixing 10 mg of active ingredient with 0.5 ml of dimethyl sulfoxide. Dilution with citrated cattle blood gives the desired concentration. About 20 unfed adult cat fleas (Ctenocephalides felis) are placed into a chamber which is closed at the top and bottom with gauze. Onto the chamber is placed a metal cylinder with its bottom end closed with parafilm. The cylinder contains the blood/active ingredient formulation, which can be imbibed by the fleas through the parafilm membrane. The cylinder is heated to 37° C., while the flea chambers are kept at room temperature. After 2 days, the kill rate in % is determined relative to the untreated control. 100% means that all of the fleas have been killed; 0% means that none of the fleas have been killed.

Diabrotica balteata [3] = experiment: Diabrotica balteata drench test; conditions: 20 ppm, soil drench, maize, after 8 days
Excerpt: Diabrotica balteata—Drench Test Solvent: 7 parts by weight of dimethylformamide Emulsifier: 2 parts by weight of alkylaryl polyglycol ether An appropriate active ingredient formulation is produced by mixing 1 part by weight of active ingredient with the specified amounts of solvent and emulsifier, and diluting the concentrate to the desired concentration with water, it being necessary to take account of the volume of soil which is drenched. It should be ensured that a concentration of 40 ppm of emulsifier in the soil is not exceeded. Further test concentrations are produced by diluting with water. 5 […] (Zea mays) in each case are sown into pots filled with earth, and the next day the pots are watered with the active ingredient preparation of the desired concentration. After one day, about 25 L2 larvae of the banded cucumber beetle (Diabrotica balteata) are added. After 8 days, efficacy in % is determined. 100% means that all 5 plants have germinated and grown; 0% means that none of the plants has emerged.

Musca domestica = Musca domestica test; conditions: 100 ppm, adult houseflies, after 2 days
Procedure: Musca domestica Test Solvent: dimethyl sulfoxide An appropriate active ingredient formulation is produced by mixing 10 mg of active ingredient with 0.5 ml of dimethyl sulfoxide and diluting the concentrate with water to the desired concentration. Vessels containing a sponge treated with sugar solution and the desired concentration of active compound formulation are populated with 10 adult houseflies (Musca domestica). After 2 days, the kill rate in % is determined relative to the untreated control. 100% means that all of the flies have been killed; 0% means that none of the flies have been killed.

Lucilia cuprina = Lucilia cuprina test; conditions: 100 ppm, L1 larvae, after 2 days
Procedure: Lucilia cuprina Test Solvent: dimethyl sulfoxide An appropriate active ingredient formulation is produced by mixing 10 mg of active ingredient with 0.5 ml of dimethyl sulfoxide and diluting the concentrate with water to the desired concentration. About 20 L1 larvae of the Australian sheep blowfly (Lucilia cuprina) are transferred into a test vessel containing minced horsemeat and the active ingredient formulation of the desired concentration. After 2 days, the kill rate in % is determined relative to the untreated control. 100% means that all the larvae have been killed; 0% means that no larvae have been killed.

Plutella xylostella = Plutella xylostella spray test (PLUTMA), comparative; conditions: 168 h, cabbage leaves, after 7 days
Excerpt: Plutella xylostella Spray Test (PLUTMA) Solvent: 14 parts by weight of dimethylformamide Emulsifier: alkylaryl polyglycol ether An appropriate active ingredient formulation is produced by dissolving 1 part by weight of active ingredient with the stated parts by weight of solvent and making the solution up to the desired concentration with water containing an emulsifier concentration of 1000 ppm. Further test concentrations are produced by diluting the formulation with emulsifier-containing water. If the addition of ammonium salts or/and penetrants is required, these are each added in a concentration of 1000 ppm to the formulation solution. Cabbage leaves (Brassica oleracea) are sprayed with an active ingredient formulation of the desired concentration and infected with larvae of the diamondback moth (Plutella xylostella). After 7 days, the kill in % is determined. 100% means that all caterpillars have been killed; 0% means that none of the caterpillars have been killed.

Spodoptera frugiperda [4] = experiment: Spodoptera frugiperda spray test (SPODFR), comparative; conditions: 168 h, cotton leaves, after 7 days; for Emax at 0.8 ppm: read-out: % Efficacy
Excerpt: (§1) Spodoptera frugtiperda—Spray Test (SPODFR) Solvent: 14 parts by weight of dimethylformamide Emulsifier: alkylaryl polyglycol ether An appropriate active ingredient formulation is produced by dissolving 1 part by weight of active ingredient with the stated parts by weight of solvent and making the solution up to the desired concentration with water containing an emulsifier concentration of 1000 ppm. Further test concentrations are produced by diluting the formulation with emulsifier-containing water. If the addition of ammonium salts or/and penetrants is required, these are each added in a concentration of 1000 ppm to the formulation solution. Cotton leaves (Gossypium hirsutum) are sprayed with an active ingredient formulation of the desired concentration and populated with caterpillars of the armyworm (Spodoptera frugiperda). After 7 days, the kill in % is determined. 100% means that all caterpillars have been killed; 0% means that none of the caterpillars have been killed.

Meloidogyne incognita = Meloidogyne incognita test; conditions: Meloidogyne incognita, 336 h, lettuce, gall formation after 14 days, read-out: nematicidal efficacy
Excerpt: Meloidogyne incognita Test Solvent: 125.0 parts by weight of acetone An appropriate active ingredient formulation is produced by mixing 1 part by weight of active ingredient with the stated amount of solvent and diluting the concentrate to the desired concentration with water. Vessels are filled with sand, active ingredient solution, an egg/larvae suspension of the southern root-knot nematode (Meloidogyne incognita) and lettuce seeds. The lettuce seeds germinate and the plants develop. The galls develop on the roots. After 14 days, the nematicidal efficacy in % is determined by the formation of galls. 100% means that no galls were found; 0% means that the number of galls on the treated plants corresponds to the untreated control.

Heliothis armigera = Heliothis armigera spray test (HELIAR), comparative; conditions: Helicoverpa armigera, 168 h, cotton plants, after 7 days
Excerpt: as §1, with “Heliothis Armigera Spray Test ([…])” for “Spodoptera frugtiperda—Spray Test (SPODFR)”, “Spray Test ([…]) Solvent: 14” for “frugtiperda—Spray Test (SPODFR) Solvent: 14”, “solution. Cotton plants (Gossypium hirsutum)” for “solution. Cotton leaves (Gossypium hirsutum)”, “desired concentration and, after drying, populated with” for “desired concentration and populated with”, “of the cotton bollworm (Heliothis armigera). After 7” for “of the armyworm (Spodoptera frugiperda). After 7”

Diabrotica balteata [5] = experiment: Diabrotica balteata spray test; conditions: Diabrotica balteata, 168 h; 100 g/ha (=32 μg/cavity), wheat grains, after 7 days; read-out: efficacy
Excerpt: Diabrotica balteata—Spray Test Solvent: 78 parts by weight of acetone • • 1.5 parts by weight of dimethylformamide Emulsifier: alkylaryl polyglycol ether An appropriate active ingredient formulation is produced by dissolving 1 part by weight of active ingredient with the stated parts by weight of solvent and making the solution up to the desired concentration with water containing an emulsifier concentration of 1000 ppm. Further test concentrations are produced by diluting the formulation with emulsifier-containing water. Pre-swollen wheat grains (Triticum aestivum) are incubated in a multiwell plate filled with agar and a little water for one day (5 seed grains per cavity). The germinated wheat grains are sprayed with an active ingredient formulation of the desired concentration. Subsequently, each cavity is infected with 10-20 beetle larvae of Diabrotica balteata. After 7 days, efficacy in % is determined. 100% means that all wheat plants have grown as in the untreated, uninfected control; 0% means that no wheat plant has grown.

Myzus persicae [6] = experiment: Myzus persicae spray test; conditions: 20 ppm, bell pepper plants, after 6 days
Excerpt: Myzus persicae—Spray Test Solvent: 14 parts by weight of dimethylformamide Emulsifier: alkylaryl polyglycol ether An appropriate active ingredient formulation is produced by dissolving 1 part by weight of active ingredient with the stated parts by weight of solvent and making the solution up to the desired concentration with water containing an emulsifier concentration of 1000 ppm. Further test concentrations are produced by diluting the formulation with emulsifier-containing water. If the addition of ammonium salts or/and penetrants is required, these are each added in a concentration of 1000 ppm to the formulation solution. Bell pepper plants (Capsicum annuum) severely infested with the green peach aphid (Myzus persicae) are treated by spraying with the active ingredient formulation in the desired concentration. After 6 days, the kill rate in % is determined. 100% means that all of the aphids have been killed; 0% means that none of the aphids have been killed.

Row | SMILES | efficacy (Nezara viridula) [%] | pest or weed control at 100 g/ha (Spodoptera frugiperda [1]) [%] | Emax at 0.8 ppm (Spodoptera frugiperda [4]) [%] | efficacy at 0.8 ppm (Plutella xylostella) [%] | pest or weed control at 20 ppm (Meloidogyne incognita) [%] | pest or weed control at 100 g/ha (Diabrotica balteata [5]) [%] | also measured
1 | CCS(=O)(=O)c1ccc(-n2ncn(-c3ccc(Cl)cc3)c2=O)nc1-c1nc2cc(C(F)(F)C(F)(F)F)nnc2n1C [Example I-22] | 90 | 100 |  |  |  |  | efficacy (Phaedon cochleariae): 100%; efficacy (Myzus persicae [2]): 100%; efficacy (kill rate) (Ctenocephalides felis): 100%; efficacy (Diabrotica balteata [3]): 100%; efficacy (kill rate) (Musca domestica): 100%; efficacy (kill rate) (Lucilia cuprina): 100%
2 | Cn1c(-c2nc(-n3ncn(-c4ccc(Cl)cc4)c3=O)ccc2CS(C)(=O)=O)nc2cc(C(F)(F)F)cnc21 [I-33 known from WO 2017/055185, reference compound] |  |  | 0 |  |  |  | efficacy at 0.16 ppm (Plutella xylostella; 0.16 ppm): 15%
3 | CCS(=O)(=O)c1ccc(-n2ncn(-c3ccc(Br)cc3)c2=O)nc1-c1nc2cc(C(F)(F)C(F)(F)F)nnc2n1C [Example I-14] |  | 100 |  | 100 | 100 | 100 | percent efficacy at tested dose at 0.8 ppm (Spodoptera frugiperda [4]): 100%; percent efficacy (kill) at fixed dose at 0.8 ppm (Heliothis armigera; 0.8 ppm): 100%; percent efficacy (kill) at fixed dose at 4 ppm (Heliothis armigera; 4 ppm): 100%
4 | CCS(=O)(=O)c1ccc(-n2ncn(-c3cccc(F)c3)c2=O)nc1-c1nc2cc(C(F)(F)C(F)(F)F)nnc2n1C [Example I-12] | 100 | 100 |  |  | 100 | 100 | efficacy (kill rate) (Myzus persicae [6]): 98%
5 | CCS(=O)(=O)c1ccc(-n2ncn(-c3ccc(Br)cc3)c2=O)nc1-c1nc2cc(C(F)(F)F)ccc2n1C [I-16 known from WO 2017/055185, reference compound] |  |  | 10 | 85 |  |  | Emax at 0.8 ppm (Heliothis armigera; 0.8 ppm, read-out: % Efficacy): 20%; Emax at 4 ppm (Heliothis armigera; 4 ppm, read-out: % Efficacy): 60%
